Laboratory results as given in PMC12029992, “Beyond-Rule-of-Five Compounds Are Not Different: In Vitro–In Vivo Extrapolation of Female CD-1 Mouse Clearance Based on Merck Healthcare KGaA Compound Set” (Pharmaceuticals, 2025).

What was measured:
[1] = Determination of CLint in mouse microsomes (microsomal stability); type: in vitro ADME; settings: female CD-1 mouse microsomes
Description: Microsomal stability was assessed on a liquid handling platform (Tecan Freedom EVO-2 200 MCA384, Männedorf, Switzerland) using pooled female CD-1 mouse microsomes. Compounds (1 µM final) were pre-incubated with microsomes (final 0.5 mg/mL) for 5 min at 37 °C in phosphate buffer (50 mM, pH 7.4), which was followed by the start of the incubation by the addition of cofactor NADPH (final 1.5 mM). […] Incubations were carried out in singlicate. Aliquots were taken at time points of 0, 5, 10, 20, and 30 min. Additionally, two control samples (0 and 30 min) lacking the addition of NADPH were included in order to flag compounds with non-microsomal metabolism. After incubation, the samples were quenched by adding sample aliquots from four different compound incubations to a two-fold volume of acetonitrile (ACN) for bioanalytical cocktailing designed to avoid analytical interference. After centrifugation, the supernatants were analyzed by a standard reversed-phase liquid chromatography assay coupled to tandem mass spectrometry (UHPLC-MS/MS) (for details, see the Supplementary Materials).
The data were subjected to post-acquisition analysis by the Analyst software (version 1.7.2), and the percentage of compound remaining (defined as the ratio of the peak area at a given time point and that at the 0 min time point) was plotted against the incubation time. The first-order elimination rate constant (kel) was derived by non-linear regression using Biorails version 5.10.22/Morphit version 8.0 (The Edge Software Consultancy, Guildford, UK), and CLint values (expressed in µL/min/mg) were obtained by normalizing kel with the microsome concentration.

[2] = system: female CD-1 mouse; assay: IVIVE of mouse clearance from hepatocytes (well-stirred model, regression correction); settings: for in vitro (hep.) pred. CLint,b - Kilford / in vitro (hep.) pred. CLint,b,u - Kilford / Fold obs. / pred. (hep.) CL,b,u - Kilford: Kilford fu,hep
Text: Compounds with phase II metabolism were removed from the microsome set (N = 25). […] The following regression equations were derived for microsomes and hepatocytes, respectively: log predicted CLint = 0.8 * log scaled CLint + 0.6 and log predicted CLint = 0.6 * log scaled CLint + 0.8, with CLint expressed in mL/min/kg.
According to Sohlenius-Sternbeck et al., the following equations were used for IVIVE: scaled CLint,b=in vitro CLint∗microsomes/hepatocytes/gram of liver∗liver weight/body weight∗fu,p/fu,inc∗Rb
The physiological scaling factors, taken from Simcyp^TM version 13/1 (Certara), were 48 mg of microsomal protein per gram of liver (MPPGL), 101.7 × 10^6 hepatocytes per gram of liver (HPGL), a liver weight of 1.46 g, and a body weight of 0.025 kg. For microsomes and hepatocytes, fu,mic and fu,hep, were used as the unbound fraction in the incubation (fu,inc), respectively. predicted CLint,b=10^(log scaled CLint∗slope+intercept)
For microsomes, a slope of 0.8 and an intercept of 0.6 were used, and for hepatocytes, a slope of 0.6 and an intercept of 0.8, according to the regression equations derived above. predicted CL,b=pred. CLint,b∗QH/pred. Clint,b+QH
CLp/Rb observed CLint,b=QH∗obs. CL,b/QH−obs. CL,b
All unbound clearance terms were calculated by dividing the respective clearance by fu,p. predicted/observed CL,b,u=pred./obs. CL,b/fu,p
The above-described approach was applied for the IVIVE of clearance of the data set analyzed in this study. Additionally, in order to evaluate the impact of the Kilford calculations as a surrogate for the experimentally determined free fraction in the in vitro systems, clearance was extrapolated using the Kilford equations [16] using the same regression coefficients.

[3] = Determination of CLint in mouse hepatocytes (hepatocyte stability); type: in vitro ADME; settings: female CD-1 mouse hepatocytes
Description: Hepatocyte stability was assessed, as described previously, on a liquid handling platform (Hamilton Microlab Vantage, Bonaduz, Switzerland) using cryopreserved pooled female CD-1 mouse hepatocytes in suspension. Viability was determined in a Neubauer chamber by trypan blue staining and was always above 70%. Compounds (1 µM final) were incubated with hepatocytes at a cell density of 0.2 × 10^6 cells/mL in Krebs–Henseleit buffer (pH 7.4). […] Incubations were carried out in duplicate at 37 °C under an atmosphere of 5% CO2 and 95% humidity. Aliquots were taken at time points of 0, 10, 20, 40, 60, and 90 min and quenched with a two-fold volume of an ACN solution containing 1.5 µM of an internal standard. The supernatants were further diluted to a ratio of 1:3 (v/v) with supernatants from other compound incubations for bioanalytical cocktailing designed to avoid analytical interference. The samples were analyzed by UHPLC-MS/MS (for details, see the Supplementary Materials).
For quantitation with the Analyst software (version 1.7.2), MS peak area ratios of the compounds and an internal standard were calculated and transformed to nanomolar concentrations determined based on a four-point calibration comprising 1.2% to 150% of the incubation concentration. Calibration standards were prepared using heat-inactivated (60 °C for at least 15 min) hepatocytes as a biomatrix and processed in duplicate, as described for the test samples.
For data analysis, the concentration data were plotted against the incubation time, the first-order kel was determined by non-linear regression using Biorails version 5.10.22/Morphit version 8.0 (The Edge Software Consultancy, Guildford, UK), and CLint values (expressed in µL/min/10^6 cells) were obtained by normalizing kel with the hepatocyte concentration.

[4] = Unbound fraction in the microsome incubation (fu,mic) by rapid equilibrium dialysis; type: in vitro ADME, human; settings: for fu,mic: experimental unbound fraction in microsome incubation
Description: (§1) The free fraction in mouse plasma, in the microsome incubation, and in the hepatocyte incubation was determined using rapid equilibrium dialysis (RED) in Teflon-coated 96-well RED devices. Test compounds were added as DMSO stocks to the donor matrix at 0.5 µM (final DMSO concentration of 0.5%) and dialyzed against phosphate buffer (70 mM, pH 7.4) in the receiver compartment for 4 h at 37 °C.
(§2) The donor matrices differed for the various unbound fractions. […] Mouse serum was dialyzed overnight to exchange the carbonate with a phosphate buffer and was then used as a donor matrix in the experiment (50% serum in 70 mM phosphate buffer, pH 7.4). For fu,mic, human liver microsomes were used as a surrogate for mouse microsomes as a donor matrix in the experiment (0.8 mg protein/mL in 70 mM phosphate buffer, pH 7.4). For fu,hep, mouse hepatocytes were inactivated by incubating overnight at room temperature and then used as a donor matrix in the experiment (0.2 million cells/mL in 70 mM phosphate buffer, pH 7.4).
(§3) Samples were taken from both compartments after 4 h of incubation and analyzed via UHPLC-MS/MS. The unbound fraction, fu, was calculated as follows: fu=creceiver/cdonor
(§4) The fu values were interconverted from one matrix concentration to another using the following formula: fu2=fu1/M2/M1−fu1·M2/M1−1 where fu2 at matrix concentration M2 can be calculated from the fu1 value at matrix concentration M1.
(§5) The recovery was calculated to check the mass balance after the experiment by adding the total compound levels in both the donor and receiver compartments.

[5] = Unbound fraction in the hepatocyte incubation (fu,hep) by rapid equilibrium dialysis; type: in vitro ADME, mouse; settings: for fu,hep: experimental unbound fraction in hepatocyte incubation
Description: as §1, §2, §3, §4, §5

[6] = recovery in equilibrium dialysis
[7] = hepatocytes, experimental fu,hep

Microsome CLint [1] [µL/min/mg]	in vitro (hep.) pred. CLint,b - Kilford ([2]; from hepatocytes) [mL/min/kg]	in vitro (hep.) pred. CLint,b,u - Kilford ([2]; from hepatocytes) [mL/min/kg]	in vitro (hep.) pred. CLint,b - exp. fu,hep ([2]; from hepatocytes, exp. fu,hep) [mL/min/kg]	in vitro (hep.) pred. CLint,b,u - exp. fu,hep ([2]; from hepatocytes, exp. fu,hep) [mL/min/kg]	Fold obs. / pred. (hep.) CL,b,u - Kilford ([2]; hepatocytes)	Fold obs. / pred. (hep.) CL,b,u - exp. fu,hep ([2]; hepatocytes, exp. fu,hep)	Hepatocyte CLint [3] [µl/min/1e6 cells]	fu,mic [4] [%]	fu,mic recovery [4, 6] [%]	fu,hep [5] [%]	fu,hep recovery [5, 6] [%]	in vitro (hep.) pred. CLint,b - Kilford ([2]; hepatocytes) [mL/min/kg]	in vitro (hep.) pred. CLint,b,u - Kilford ([2]; hepatocytes) [mL/min/kg]	Fold obs. / pred. (hep.) CL,b,u - exp. fu,hep [2, 7]	in vitro (hep.) pred. CLint,b - exp. fu,hep [2, 7] [mL/min/kg]	in vitro (hep.) pred. CLint,b,u - exp. fu,hep [2, 7] [mL/min/kg]	fu,mic recovery ([4]; recovery in fu,mic dialysis) [%]	fu,hep recovery ([5]; recovery in fu,hep dialysis) [%]	Structure (SMILES)
212.8	83.55	1799.14	89.51	1927.40	1.4	1.3	222.1	35.01	87	87.81	136								N#Cc1c[nH]c2c(C(=O)N3CCN(CCc4ccc(F)cc4)CC3)cccc12 [MSC213]
17.8					0.3		11.9	91.70		97.45		9.82	576.00	0.3	9.94	582.73	98	232	O=C(O)c1cc(-c2ccc(F)cc2F)ccc1O [MSC001]
165.3					1.5		70.5	58.66		91.30		99.13	516.30	1.5	103.91	541.18	61	50	COc1cccc(OCCCN)c1-c1cc(Nc2cnc(C#N)cn2)n[nH]1 [MSC020]
20.5					0.356		16.5	87.21		100.00		21.81	285.43	0.36	21.48	281.21	98	80	CNC(=O)c1cc(Oc2ccc3nc(N[C@@H]4CCCC[C@H]4O)sc3c2)ccn1 [MSC003]
